Experimental findings from patent US8518957B2, “Methanocarba adenosine derivatives, pharmaceutical compositions, and method of reducing intraocular pressure” (The United States of America, as represented by the …, priority 2009, dated 2013) are described below.

In test [1] the target is T1, hA2AAR (Homo sapiens, UniProt P29274).
T1 construct: expressed in transfected cells
The experiment in a line: Radioligand binding at human A2A AR ([3H]CGS21680, membranes of HEK-293 cells). The note with it: for Ki: Example 7, agonist radioligand [3H]46, HEK293, read-out: AR Affinity Ki, nM, A2A. As for the experimental part: (§1) [^3H](2-[p-(2-Carboxyethyl)phenyl-ethylamino]-5′-N-ethylcarboxamido-adenosine) (37, [^3H]CGS21680, 40.5 Ci/mmol) and [^125I]N^6-(4-amino-3-iodobenzyl)adenosine-5′-N-methyluronamide (38, [^125I]I-AB-MECA, 2200 Ci/mmol) were purchased from Perkin-Elmer Life and Analytical Science (Boston, Mass.). Test compounds were prepared as 5 mM stock solutions in DMSO and stored frozen at −20° C.
(§2) CHO cells stably expressing the recombinant hA1 and hA3Rs, and HEK-293 cells stably expressing the hA2AAR were cultured in Dulbecco's modified Eagle medium (DMEM) and F12 (1:1) supplemented with 10% fetal bovine serum, 100 units/mL penicillin, 100 μg/mL streptomycin, and […] glutamine. In addition, 800 μg/mL geneticin was added to the A2A media, while 500 μg/mL hygromycin was added to the A1 and A3 media. After harvesting, cells were homogenized and suspended in PBS. Cells were then centrifuged at 240 g for 5 min, and the pellet was resuspended in 50 mM Tris-HCl buffer (pH 7.5) containing 10 mM MgCl2. The suspension was homogenized and was then ultra-centrifuged at 14,330 g for 30 min at 4° C. The resultant pellets were resuspended in Tris buffer, incubated with adenosine deaminase (3 units/mL) for 30 min at 37° C. The suspension was homogenized with an electric homogenizer for 10 sec, pipetted into 1 mL vials and then stored at −80° C. until the binding experiments were conducted. The protein concentration was measured using the BCA Protein Assay Kit from Pierce Biotechnology, Inc. (Rockford, Ill.).
(§3) Into each tube in the binding assay was added 50 μL of increasing concentrations of the test ligand in Tris-HCl buffer (50 mM, pH 7.5) containing 10 mM MgCl2, 50 μl, of the appropriate agonist radioligand, and finally 100 μL of membrane suspension. For the A1AR (22 μg of protein/tube) the radioligand used was [^3H]36 (final concentration of 3.5 nM). For the A2AAR (20 μg/tube) the radioligand used was [^3H]37 (10 nM). For the A3AR (21 μg/tube) the radioligand used was [^125I]38 (0.34 nM). Nonspecific binding was determined using a final concentration of 10 μM unlabeled 36 diluted with the buffer. The mixtures were incubated at 25° C. for 60 min in a shaking water bath. Binding reactions were terminated by filtration through Brandel GF/B filters under a reduced pressure using a M-24 cell harvester (Brandel, Gaithersburg, Md.). Filters were washed three times with 3 mL of 50 mM ice-cold Tris-HCl buffer (pH 7.5). Filters for A1 and A2AAR binding were placed in scintillation vials containing 5 mL of Hydrofluor scintillation buffer and counted using a Perkin Elmer Liquid Scintillation Analyzer (Tri-Carb 2810TR). Filters for A3AR binding were counted using a Packard Cobra II γ-counter. The Ki values were determined using GraphPad Prism for all assays.
(§4) [^3H](2-[p-(2-carboxyethyl)phenyl-ethylamino]-5′-N-ethylcarboxamido-adenosine) ([^3H]CGS21680, 40.5 Ci/mmol) and [^125I]N^6-(4-amino-3-iodobenzyl)adenosine-5′-N-methyluronamide ([^125I]I-AB-MECA, 2200 Ci/mmol) were purchased from PerkinElmer. Test compounds were prepared as 5-mM stock solutions in DMSO and stored frozen at −20° C.
(§5) Chinese hamster ovary (CHO) cells were generated by stably expressing the recombinant hA1 and hA3 and human embryonic kidney (HEK) 293 cells stably expressing the hA2AAR in DMEM and F12 (1:1) supplemented with 10% fetal bovine serum, 100 units/mL penicillin, 100 μg/mL streptomycin, and 2 μmol/mL glutamine. 800 μg/mL Geneticin were added to the A2A media and 500 μg/mL hygromycin to the A1 and A3 media. After harvesting the cells, they were homogenized with an electric homogenizer for 10 sec, pipetted them into 1-mL vials, and then stored them at −80° C. until the binding experiments were conducted. The protein concentration was measured with a BCA Protein Assay Kit from Pierce Biotechnology (Rockford, Ill.). […]

Test [2] addresses T2, human A1 AR (Homo sapiens, UniProt P30542).
T2 construct: expressed in transfected cells
T2 sequence (P30542 1-326): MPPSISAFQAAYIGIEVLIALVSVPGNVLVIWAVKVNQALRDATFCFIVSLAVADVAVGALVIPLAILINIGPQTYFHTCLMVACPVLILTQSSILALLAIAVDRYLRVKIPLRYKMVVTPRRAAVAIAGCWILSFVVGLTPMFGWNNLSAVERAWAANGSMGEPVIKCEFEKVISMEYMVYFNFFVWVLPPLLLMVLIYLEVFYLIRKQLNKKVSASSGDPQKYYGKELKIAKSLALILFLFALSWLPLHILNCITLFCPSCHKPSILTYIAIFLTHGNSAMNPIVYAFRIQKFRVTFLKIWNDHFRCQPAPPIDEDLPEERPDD
Briefly: Radioligand binding at human A1 AR ([3H]NECA, membranes of CHO cells). The settings on record: for Ki: Example 7, agonist radioligand [3H]45, read-out: AR Affinity Ki, nM, A1. As for the experimental part: as §1, §2, §3, §4, §5

The target of test [3] is T3, human A3AR (Homo sapiens, UniProt P0DMS8).
T3 construct: expressed in transfected cells
T3 sequence (P0DMS8 1-318): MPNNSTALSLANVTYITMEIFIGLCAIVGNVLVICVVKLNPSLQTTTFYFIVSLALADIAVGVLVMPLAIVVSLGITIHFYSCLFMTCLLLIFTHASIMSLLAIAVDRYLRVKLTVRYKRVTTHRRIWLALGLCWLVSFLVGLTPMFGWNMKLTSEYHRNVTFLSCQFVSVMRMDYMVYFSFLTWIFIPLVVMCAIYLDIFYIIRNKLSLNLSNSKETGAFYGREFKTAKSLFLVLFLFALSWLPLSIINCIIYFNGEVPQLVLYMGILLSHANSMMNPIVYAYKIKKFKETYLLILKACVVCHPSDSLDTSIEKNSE
The experiment in a line: Radioligand binding at human A3 AR ([125I]I-AB-MECA, membranes of CHO cells). The note with it: Example 7; agonist radioligand [125I]47; read-out: AR Affinity Ki, nM, A3. As for the experimental part: Test compounds were prepared as 5 mM stock solutions in DMSO and stored frozen at −20° C.
as §2
as §3, with “For the A1AR (22 μg of protein/tube) the radioligand used was [^3H]36 (final concentration of 3.5 nM).” left out, “For the A3AR (21 μg/tube) the radioligand used was [^125I]38 (0.34 nM).” left out, “Filters for A1 and A2AAR binding were placed in scintillation vials containing 5 mL of Hydrofluor scintillation buffer and counted using a Perkin Elmer Liquid Scintillation Analyzer (Tri-Carb 2810TR).” left out
Test compounds were prepared as 5-mM stock solutions in DMSO and stored frozen at −20° C.
Chinese hamster ovary (CHO) cells were generated by stably expressing the recombinant hA1 and hA3 and human embryonic kidney (HEK) 293 cells stably expressing the hA2AAR in DMEM and F12 (1:1) supplemented with 10% fetal bovine serum, 100 units/mL penicillin, 100 μg/mL streptomycin, and 2 μmol/mL glutamine. 800 μg/mL Geneticin were added to the A2A media and 500 μg/mL hygromycin to the A1 and A3 media. After harvesting the cells, they were homogenized with an electric homogenizer for 10 sec, pipetted them into 1-mL vials, and then stored them at −80° C. until the binding experiments were conducted. The protein concentration was measured with a BCA Protein Assay Kit from Pierce Biotechnology (Rockford, Ill.).
Each tube in the binding assay contained 50 μL of increasing concentrations of the test ligand in Tris-HCl buffer (50 mM, pH 7.5) containing 10 mM MgCl2, 50 μL of the appropriate agonist radioligand, and 100 μL membrane suspension, added sequentially. […] For the A2AAR (20 μg/tube), the radioligand [^3H]CGS21680 was used (−10 nM). […] The mixtures were incubated at 25° C. for 60 min in a shaking water bath. The binding reactions were terminated by filtration through Brandel GF/B filters under a reduced pressure with a M-24 cell harvester (Brandel, Gaithersburg, Md.). Filters were washed three times with 3 mL 50-mM ice-cold Tris-HCl buffer (pH 7.5). […] The filters were counted for A3AR binding with a Packard Cobra II γ-counter (PerkinElmer). The Ki values were determined with GraphPad Prism for all assays.

T1 sequence (P29274 whole entry): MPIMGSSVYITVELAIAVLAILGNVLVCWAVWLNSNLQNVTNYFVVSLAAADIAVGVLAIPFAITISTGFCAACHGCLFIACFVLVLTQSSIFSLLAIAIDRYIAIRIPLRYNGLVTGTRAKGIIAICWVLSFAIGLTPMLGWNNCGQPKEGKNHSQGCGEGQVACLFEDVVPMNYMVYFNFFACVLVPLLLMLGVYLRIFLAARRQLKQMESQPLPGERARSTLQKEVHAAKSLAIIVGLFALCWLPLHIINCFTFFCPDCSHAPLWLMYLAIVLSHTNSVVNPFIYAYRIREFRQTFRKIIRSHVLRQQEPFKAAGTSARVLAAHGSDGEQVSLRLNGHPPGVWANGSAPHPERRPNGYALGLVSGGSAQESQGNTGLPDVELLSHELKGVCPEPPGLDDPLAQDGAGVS

The inhibition is the drop in the measured response relative to a control, in per cent. A higher inhibition goes with a response far below the control. Usually Ki stands for the dissociation constant of the complex between target and ligand, obtained from inhibition or displacement. As for `O=[N+]([O-])c1cc(-n2cc(CCCCCC#Cc3cccc(CNc4nc(Cl)nc5c4ncn5[C@H]4[C@H](O)[C@H](O)[C@@H]5C[C@@H]54)c3)nn2)ccc1F` [Compound 216, (1R,2R,3S,4R,5S)-4-(2-Chloro-6-(3-(7-(1-(4-fluoro-3-nitrophenyl)-1H-1,2,3-triazol-4-yl)hept-1-ynyl)benzylamino)-9H-purin-9-yl)bicyclo[3.1.0]hexane-2,3-diol], the inhibition at 10 µM in test [1] is 18%; in test [2] it was 29.5%. Further, in test [3], the Ki is 521 ± 250 nM.

As to `C#CCNc1nc(Cl)nc2c1ncn2[C@H]1[C@H](O)[C@H](O)[C@]2(C(=O)NC)C[C@H]12` [Compound 218, (1S,2R,3S,4R,5S)-4-(2-Chloro-6-(prop-2-ynylamino)-9H-purin-9-yl)-2,3-dihydroxy-N-methylbicyclo[3.1.0]hexane-1-carboxamide], the Ki in test [3] is 1.9 nM.

For `CNC(=O)[C@@]12C[C@@H]1[C@@H](n1cnc3c(NCc4cccc(C#CCCCc5cn(-c6ccc(F)c(N)c6)nn5)c4)nc(Cl)nc31)[C@H](O)[C@@H]2O` [Compound 207, (1S,2R,3S,4R,5S)-4-(2-Chloro-6-(3-(5-(1-(4-fluoro-3-amino-phenyl)-1H-1,2,3-triazol-4-yl)pent-1-ynyl)benzylamino)-9H-purin-9-yl)-2,3-dihydroxybicyclo[3.1.0]hexane-1-carboxylic acid-N-methylamide], the Ki in test [3] was 14.3 ± 2.3 nM.

Turning to `C#CCCCCC#Cc1cccc(CNc2nc(Cl)nc3c2ncn3[C@H]2[C@H](O)[C@H](O)[C@@H]3C[C@@H]32)c1` [Compound 212, (1R,2R,3S,4R,5S)-4-(2-Chloro-6-(3-(octa-1,7-diynyl)benzylamino)-9H-purin-9-yl) bicyclo[3.1.0]hexane-2,3-diol], the inhibition at 10 µM was 44.1% in test [1] and 48.5% in test [2]. The Ki in test [3] came to 2500 ± 640 nM.

As for `CNC(=O)[C@@]12C[C@@H]1[C@@H](n1cnc3c(NCc4cccc(C#CCCCc5cn(-c6ccc(F)c([N+](=O)[O-])c6)nn5)c4)nc(Cl)nc31)[C@H](O)[C@@H]2O` [Compound 203, (1S,2R,3S,4R,5S)-4-(2-Chloro-6-(3-(5-(1-(4-fluoro-3-nitrophenyl)-1H-1,2,3-triazol-4-yl)pent-1-ynyl)benzylamino)-9H-purin-9-yl)-2,3-dihydroxybicyclo[3.1.0]hexane-1-carboxylic acid-N-methylamide], the Ki in test [1] came to 1960 ± 50 nM; in test [2] it was 37.4 ± 12 nM; in test [3], 3.2 ± 1.1 nM.

With `C#CCCCCCC#Cc1cccc(CNc2nc(Cl)nc3c2ncn3[C@H]2[C@H](O)[C@H](O)[C@]3(C(=O)NC)C[C@H]23)c1` [Compound 202, (1S,2R,3S,4R,5S)-4-[2-Chloro-6-{3-(1,8-nonadiynyl)}-9H-purin-9-yl]-2,3-dihydroxybicyclo[3.1.0]hexane-1-carboxylic acid N-methylamide], the inhibition at 10 µM in test [1] came out at 7%; in test [2] it was 47.7%. For the same compound, the Ki in test [3] came to 87.2 ± 49 nM.

In the case of `O=[N+]([O-])c1cc(-n2cc(CCCCC#Cc3cccc(CNc4nc(Cl)nc5c4ncn5[C@H]4[C@H](O)[C@H](O)[C@@H]5C[C@@H]54)c3)nn2)ccc1F` [Compound 215, (1R,2R,3S,4R,5S)-4-(2-Chloro-6-(3-(6-(1-(4-fluoro-3-nitrophenyl)-1H-1,2,3-triazol-4-yl)hex-1-ynyl)benzylamino)-9H-purin-9-yl)-bicyclo[3.1.0]hexane-2,3-diol], the results for the inhibition at 10 µM in test [1] and in test [2] were 8.2% and 24.3%, respectively. The Ki in test [3] amounted to 933 ± 720 nM.

Turning to `CNC(=O)[C@@]12C[C@@H]1[C@@H](n1cnc3c(NCc4cccc(I)c4)nc(Cl)nc31)[C@H](O)[C@@H]2O` [Compound 127, reference compound], the results for the Ki in test [1] and in test [2] were 784 ± 97 nM and 136 ± 22 nM, respectively.

`CNC(=O)[C@@]12C[C@@H]1[C@@H](n1cnc3c(NCc4cccc(C#CCCCCCc5cn(-c6ccc(F)c(N)c6)nn5)c4)nc(Cl)nc31)[C@H](O)[C@@H]2O` [Compound 208, (1S,2R,3S,4R,5S)-4-(2-Chloro-6-(3-(7-(1-(4-fluoro-3-amino-phenyl)-1H-1,2,3-triazol-4-yl)hept-1-ynyl)benzylamino)-9H-purin-9-yl)-2,3-dihydroxybicyclo[3.1.0]hexane-1-carboxylic acid-N-methylamide]: in test [3], the Ki was found to be 47.6 ± 11.3 nM.
